The values that follow are results of earlier work, collected in patent US20230157303A1, “Plant-Based Pesticide” (priority 2022, published 2023).

Conditions in all cases: in vivo
In data set [1] the test system is aquatic wildlife.
Data set [2] has as its system honeybees.
For data set [3], the system named is humans and other mammals.

For the compound `CC1(C)C(C=C(Cl)Cl)C1C(=O)OC(C#N)c1cccc(Oc2ccccc2)c1` (centres unmarked) [Cypermethrin], in data set [1], the “toxicity to aquatic wildlife” value is reported as “highly toxic”. The toxicity to honeybees entry in data set [2] is on record as “very highly toxic”. For the same compound, the “toxicity to humans and other mammals” value in data set [3] is “acutely toxic”.
Take `CCOP(=S)(OCC)Oc1cc(C)nc(C(C)C)n1` [diazinon, Diazinon]: the toxicity to honeybees entry in data set [2] is on record as “toxic”.
As to `CCOC(=O)CC(SP(=S)(OC)OC)C(=O)OCC` (centres unmarked) [malathion, Malathion], the toxicity to honeybees result in data set [2] is reported as “toxic”.
